Read-outs that look alike come from different tables or passages of the source. *1 amine or outer side, *2 acyl side, *3 side chain or, on linkers, in order; H or OH if unused. Where a SMILES comes first, the peptide text is derived from it. Bridges are numbered along the chain shown (N, C = ends). [ ]: non-standard residue; d: D form. Tle = CC(C)(C)[C@H](N)C(=O)O; dDab = NCC[C@@H](N)C(=O)O; Orn = NCCC[C@H](N)C(=O)O; Dab = NCC[C@H](N)C(=O)O; Dap = NC[C@H](N)C(=O)O; CO = O=C([*:1])[*:2]
Experiments:
Type in all cases: cell-based
[1] = system: human red blood cells (hRBC); experiment: Hemolysis of human red blood cells
Method: Stock solutions were kept at +4° C., light protected.
Percent hemolysis was calculated as follows: (OD540peptide/OD540H2O)×100%.

[2] = system: Escherichia coli ATCC 25922
Summary of the method: (§1)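 Peptide activity was tested by NCCLS broth microdilution with slight modifications. Bacteria were diluted in cation-adjusted Mueller-Hinton II broth to approximately 10^6 CFU/mL against a 0.5 McFarland standard. They were then exposed to two-fold serial peptide dilutions in broth containing 0.002% final polysorbate 80.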

[3] = system: Acinetobacter baumannii DSM 30008
Summary of the method: as §1

[4] = system: Klebsiella pneumoniae ATCC 13883
Summary of the method: as §1

[5] = Mueller-Hinton broth II, 0.002% P-80, 18-20 hours at 35° C.

In the case of `CC(C)[C@@H]1NC(=O)[C@@H]2CCCN2C(=O)[C@H]2CCCN2C(=O)[C@H](CO)NC(=O)[C@@H]2CC(=O)NCC[C@H](NC1=O)C(=O)N[C@@H](Cc1ccc(O)cc1)C(=O)N[C@@H](CCN)C(=O)N[C@@H](CCN)C(=O)N[C@H](CCN)C(=O)N[C@@H](CCN)C(=O)N[C@@H](Cc1c[nH]c3ccccc13)C(=O)N[C@@H](CCN)C(=O)N[C@@H](C(C)(C)C)C(=O)N2` [Example 28] (HELM PEPTIDE1{V.[Dab].Y.[Dab].[Dab].[NCC[C@@H](N[*:1])C(=O)[*:2]].[Dab].W.[Dab].[CC(C)(C)[C@H](N[*:1])C(=O)[*:2]].D.S.[dP].P}$PEPTIDE1,PEPTIDE1,2:R3-11:R3|PEPTIDE1,PEPTIDE1,1:R1-14:R2$$$V2.0), the “Hemolysis at 100 μg/mL” value ([1]; red cells of human, 1 h, 100) is reported as 1%, the “Escherichia coli ATCC 25922 MIC” value ([2]; ATCC 25922) is reported as 0.5 µg/mL and the “Acinetobacter baumannii DSM 30008 MIC” value ([3]; DSM 30008) is reported as 2 µg/mL. The “Klebsiella pneumoniae ATCC 13883 MIC” value ([4]; ATCC 13883) was 0.5 µg/mL.

For `CC[C@H](C)[C@@H]1NC(=O)[C@H](Cc2ccc(O)cc2)NC(=O)[C@H]2CCCN2C(=O)[C@H](CO)NC(=O)[C@@H]2CSSC[C@H](NC1=O)C(=O)N[C@@H](Cc1ccc(O)cc1)C(=O)N[C@@H](CCN)C(=O)N[C@@H](CCCN)C(=O)N[C@H](CCN)C(=O)N[C@@H](CCN)C(=O)N[C@@H](Cc1c[nH]c3ccccc13)C(=O)N[C@@H](CCN)C(=O)N[C@@H](C(C)(C)C)C(=O)N2` [Example 11, cyclo(-Ile-Cys-Tyr-Dab-Orn-^DDab-Dab-Trp-Dab-tBuGly-Cys-Ser-^DPro-Tyr-)] (HELM PEPTIDE1{C.S.[dP].Y.I.C.Y.[Dab].[Orn].[NCC[C@@H](N[*:1])C(=O)[*:2]].[Dab].W.[Dab].[CC(C)(C)[C@H](N[*:1])C(=O)[*:2]]}$PEPTIDE1,PEPTIDE1,1:R3-6:R3|PEPTIDE1,PEPTIDE1,1:R1-14:R2$$$V2.0), the “Hemolysis at 100 μg/mL” value ([1]; red cells of human, 1 h, 100) was 1%, the “Escherichia coli ATCC 25922 MIC” value ([2]; ATCC 25922) was 2 µg/mL and the “Acinetobacter baumannii DSM 30008 MIC” value ([3]; DSM 30008) was 1 µg/mL. The “Klebsiella pneumoniae ATCC 13883 MIC” value ([4]; ATCC 13883) was 0.5 µg/mL.

For `CC(C)(C)[C@@H]1NC(=O)[C@H](CCN)NC(=O)[C@H](Cc2c[nH]c3ccccc23)NC(=O)[C@H](CCN)NC(=O)[C@@H](CCN)NC(=O)[C@H](CCN)NC(=O)[C@H](CCN)NC(=O)[C@H](Cc2ccc(O)cc2)NC(=O)[C@@H]2CCNC(=O)C[C@H](NC1=O)C(=O)N[C@@H](CO)C(=O)N1CCC[C@@H]1C(=O)N1CCC[C@H]1C(=O)N[C@@H](Cc1c[nH]c3ccccc13)C(=O)N2` [Example 14, cyclo(-Trp-Dab-Tyr-Dab-Dab-^DDab-Dab-Trp-Dab-tBuGly-Asp-Ser-^DPro-Pro-)] (HELM PEPTIDE1{W.[Dab].Y.[Dab].[Dab].[NCC[C@@H](N[*:1])C(=O)[*:2]].[Dab].W.[Dab].[CC(C)(C)[C@H](N[*:1])C(=O)[*:2]].D.S.[dP].P}$PEPTIDE1,PEPTIDE1,2:R3-11:R3|PEPTIDE1,PEPTIDE1,1:R1-14:R2$$$V2.0), the “Hemolysis at 100 μg/mL” value ([1]; red cells of human, 1 h, 100) was 2%, the “Escherichia coli ATCC 25922 MIC” value ([2]; ATCC 25922) was 0.25 µg/mL and the “Acinetobacter baumannii DSM 30008 MIC” value ([3]; DSM 30008) was 0.5 µg/mL. The “Klebsiella pneumoniae ATCC 13883 MIC” value ([4]; ATCC 13883) was 0.25 µg/mL.

In the case of `CC(C)[C@@H]1NC(=O)[C@@H]2CCCN2C(=O)[C@H]2CCCN2C(=O)[C@H](CO)NC(=O)[C@@H]2CNC(=O)NC[C@H](NC1=O)C(=O)N[C@@H](Cc1ccc(O)cc1)C(=O)N[C@@H](CCN)C(=O)N[C@@H](CN)C(=O)N[C@H](CCN)C(=O)N[C@@H](CCN)C(=O)N[C@@H](Cc1c[nH]c3ccccc13)C(=O)N[C@@H](CCN)C(=O)N[C@@H](C(C)(C)C)C(=O)N2` [Example 40, cyclo(-Val-Dap-Tyr-Dab-Dap-^DDab-Dab-Trp-Dab-tBuGly-Dap-Ser-^DPro-Pro-)] (cyclo(V[Dap]Y[Dab][Dap][dDab][Dab]W[Dab][Tle][Dap]S[dP]P); linker 2-11 via CO), the “Hemolysis at 100 μg/mL” value ([1]; red cells of human, 1 h, 100) is reported as 2%, the “Escherichia coli ATCC 25922 MIC” value ([2]; ATCC 25922) is reported as 0.25 µg/mL and the “Acinetobacter baumannii DSM 30008 MIC” value ([3]; DSM 30008) is reported as 1 µg/mL. The “Klebsiella pneumoniae ATCC 13883 MIC” value ([4]; ATCC 13883) was 0.25 µg/mL.

For `CC(C)C[C@@H]1NC(=O)[C@H](CN)NC(=O)[C@H]2CCCN2C(=O)[C@H](C(C)C)NC(=O)[C@@H]2CSSC[C@H](NC1=O)C(=O)N[C@@H](Cc1ccc(O)cc1)C(=O)N[C@@H](C)C(=O)N[C@@H](CCCN)C(=O)N[C@H](CCN)C(=O)N[C@@H](CCN)C(=O)N[C@@H](Cc1c[nH]c3ccccc13)C(=O)N[C@@H](C)C(=O)N[C@@H](C(C)C)C(=O)N2` [Example 6, cyclo(-Leu-Cys-Tyr-Ala-Orn-^DDab-Dab-Trp-Ala-Val-Cys-Val-^DPro-Dap-)] (HELM PEPTIDE1{A.[Orn].[NCC[C@@H](N[*:1])C(=O)[*:2]].[Dab].W.A.V.C.V.[dP].[NC[C@H](N[*:1])C(=O)[*:2]].L.C.Y}$PEPTIDE1,PEPTIDE1,8:R3-13:R3|PEPTIDE1,PEPTIDE1,1:R1-14:R2$$$V2.0), the “Hemolysis at 100 μg/mL” value ([1]; red cells of human, 1 h, 100) was 5%, the “Escherichia coli ATCC 25922 MIC” value ([2]; ATCC 25922) was 2 µg/mL and the “Acinetobacter baumannii DSM 30008 MIC” value ([3]; DSM 30008) was 1.5 µg/mL. The “Klebsiella pneumoniae ATCC 13883 MIC” value ([4]; ATCC 13883) was 2 µg/mL.

`CC(C)C[C@@H]1NC(=O)[C@@H]2CCCN2C(=O)[C@H]2CCCN2C(=O)[C@H](CO)NC(=O)[C@@H]2CC(=O)NCCCC[C@H](NC1=O)C(=O)N[C@@H](Cc1ccc(O)cc1)C(=O)N[C@@H](CCN)C(=O)N[C@@H](CCCN)C(=O)N[C@H](CCN)C(=O)N[C@@H](CCN)C(=O)N[C@@H](Cc1c[nH]c3ccccc13)C(=O)N[C@@H](CCN)C(=O)N[C@@H](C(C)(C)C)C(=O)N2` [Example 35, cyclo(-Leu-Lys-Tyr-Dab-Orn-^DDab-Dab-Trp-Dab-tBuGly-Asp-Ser-^DPro-Pro-)] (HELM PEPTIDE1{L.K.Y.[Dab].[Orn].[NCC[C@@H](N[*:1])C(=O)[*:2]].[Dab].W.[Dab].[CC(C)(C)[C@H](N[*:1])C(=O)[*:2]].D.S.[dP].P}$PEPTIDE1,PEPTIDE1,2:R3-11:R3|PEPTIDE1,PEPTIDE1,1:R1-14:R2$$$V2.0) was tested, and the “Hemolysis at 100 μg/mL” value ([1]; red cells of human, 1 h, 100) was 0%, the “Escherichia coli ATCC 25922 MIC” value ([2]; ATCC 25922) was 0.5 µg/mL and the “Acinetobacter baumannii DSM 30008 MIC” value ([3]; DSM 30008) was 1 µg/mL. For the same compound, the “Klebsiella pneumoniae ATCC 13883 MIC” value ([4]; ATCC 13883) was 2 µg/mL.

`CC(C)C[C@@H]1NC(=O)[C@H](CCN)NC(=O)[C@H]2CCCN2C(=O)[C@H](C(C)C)NC(=O)[C@@H]2CSSC[C@H](NC1=O)C(=O)N[C@@H](Cc1ccc(O)cc1)C(=O)N[C@@H](C)C(=O)N[C@@H](CCN)C(=O)N[C@@H](CCN)C(=O)N[C@@H](CCN)C(=O)N[C@@H](Cc1c[nH]c3ccccc13)C(=O)N[C@@H](C)C(=O)N[C@@H](C(C)C)C(=O)N2` [Example 1, cyclo(-Leu-Cys-Tyr-Ala-Dab-Dab-Dab-Trp-Ala-Val-Cys-Val-^DPro-Dab-)] (HELM PEPTIDE1{A.[Dab].[Dab].[Dab].W.A.V.C.V.[dP].[Dab].L.C.Y}$PEPTIDE1,PEPTIDE1,8:R3-13:R3|PEPTIDE1,PEPTIDE1,1:R1-14:R2$$$V2.0) was tested, and the “Hemolysis at 100 μg/mL” value ([1]; 100 μg/mL, 20% hRBC (v/v), 1 h at 37° C.) was 2%, the “Escherichia coli ATCC 25922 MIC” value [2, 5] was 4 µg/mL and the “Acinetobacter baumannii DSM 30008 MIC” value [3, 5] was 2.5 µg/mL. The “Klebsiella pneumoniae ATCC 13883 MIC” value [4, 5] was 2 µg/mL.

For `CC(C)C[C@@H]1NC(=O)[C@@H]2CCCN2C(=O)[C@H]2CCCN2C(=O)[C@H](CO)NC(=O)[C@@H]2CC(=O)NCCCC[C@H](NC1=O)C(=O)N[C@@H](Cc1ccc(O)cc1)C(=O)N[C@@H](CCN)C(=O)N[C@@H](CCCN)C(=O)N[C@@H](CCN)C(=O)N[C@@H](CCN)C(=O)N[C@@H](Cc1c[nH]c3ccccc13)C(=O)N[C@@H](CCN)C(=O)N[C@@H](C(C)(C)C)C(=O)N2` [Example 33, cyclo(-Leu-Lys-Tyr-Dab-Orn-Dab-Dab-Trp-Dab-tBuGly-Asp-Ser-^DPro-Pro-)] (HELM PEPTIDE1{L.K.Y.[Dab].[Orn].[Dab].[Dab].W.[Dab].[CC(C)(C)[C@H](N[*:1])C(=O)[*:2]].D.S.[dP].P}$PEPTIDE1,PEPTIDE1,2:R3-11:R3|PEPTIDE1,PEPTIDE1,1:R1-14:R2$$$V2.0), the “Hemolysis at 100 μg/mL” value ([1]; red cells of human, 1 h, 100) was 1%, the “Escherichia coli ATCC 25922 MIC” value ([2]; ATCC 25922) was 1 µg/mL and the “Acinetobacter baumannii DSM 30008 MIC” value ([3]; DSM 30008) was 1 µg/mL. For the same compound, the “Klebsiella pneumoniae ATCC 13883 MIC” value ([4]; ATCC 13883) was 4 µg/mL.

With `C[C@@H]1NC(=O)[C@H](C(C)(C)C)NC(=O)[C@H](CCN)NC(=O)[C@H](Cc2c[nH]c3ccccc23)NC(=O)[C@H](CCN)NC(=O)[C@@H](CCN)NC(=O)[C@H](CCCN)NC(=O)[C@H](CCN)NC(=O)[C@H](Cc2ccc(O)cc2)NC(=O)[C@H](CN)NC(=O)[C@H](Cc2ccccc2)NC(=O)[C@H](Cc2ccc(O)cc2)NC(=O)[C@H]2CCCN2C(=O)[C@H](CO)NC1=O` [Example 44, cyclo(-Phe-Dap-Tyr-Dab-Orn-^DDab-Dab-Trp-Dab-tBuGly-Ala-Ser-^DPro-Tyr-)] (cyclo(AS[dP]YF[Dap]Y[Dab][Orn][dDab][Dab]W[Dab][Tle])) the “Hemolysis at 100 μg/mL” value ([1]; red cells of human, 1 h, 100) was 0%, the “Escherichia coli ATCC 25922 MIC” value ([2]; ATCC 25922) was 0.5 µg/mL and the “Acinetobacter baumannii DSM 30008 MIC” value ([3]; DSM 30008) was 1 µg/mL. The “Klebsiella pneumoniae ATCC 13883 MIC” value ([4]; ATCC 13883) was 0.25 µg/mL.
